Assay results: the supplement of paper PMC13380429
± gives the standard deviation of the averaged measurements.

Legend:
Settings in all cases: 72 h
Vero E6 [1] = experiment: cell viability relative to DMSO; higher = less toxic
U2OS [2] = experiment: as above
Calu-3 [3] = experiment: as above
HepG2 [4] = experiment: as above
Caco-2 [5] = experiment: as above
Vero E6 [6] = experiment: drug sensitivity score (DSS) for viability; higher = more toxic; extreme values may be limits of the assay
U2OS [7] = experiment: as above
Calu-3 [8] = experiment: as above
HepG2 [9] = experiment: as above
Caco-2 [10] = experiment: as above
Vero E6 [11] = experiment: relative viability EC50 (midpoint between 100% and the lowest measured viability); higher = less toxic
U2OS [12] = experiment: as above
Calu-3 [13] = experiment: as above
HepG2 [14] = experiment: as above
Caco-2 [15] = experiment: as above

Structure (SMILES)	cell viability (Vero E6 [1]; 1 nM)	cell viability (Vero E6 [1]; 10 nM)	cell viability (Vero E6 [1]; 100 nM)	cell viability (Vero E6 [1]; 1000 nM)	cell viability (Vero E6 [1]; 10000 nM)	cell viability (U2OS [2]; 1 nM)	cell viability (U2OS [2]; 10 nM)	cell viability (U2OS [2]; 100 nM)	cell viability (U2OS [2]; 1000 nM)	cell viability (U2OS [2]; 10000 nM)	cell viability (Calu-3 [3]; 1 nM)	cell viability (Calu-3 [3]; 10 nM)	cell viability (Calu-3 [3]; 100 nM)	cell viability (Calu-3 [3]; 1000 nM)	cell viability (Calu-3 [3]; 10000 nM)	cell viability (HepG2 [4]; 1 nM)	cell viability (HepG2 [4]; 10 nM)	cell viability (HepG2 [4]; 100 nM)	cell viability (HepG2 [4]; 1000 nM)	cell viability (HepG2 [4]; 10000 nM)	cell viability (Caco-2 [5]; 1 nM)	cell viability (Caco-2 [5]; 10 nM)	cell viability (Caco-2 [5]; 100 nM)	cell viability (Caco-2 [5]; 1000 nM)	cell viability (Caco-2 [5]; 10000 nM)	drug sensitivity score (Vero E6 [6])	drug sensitivity score (U2OS [7])	drug sensitivity score (Calu-3 [8])	drug sensitivity score (HepG2 [9])	drug sensitivity score (Caco-2 [10])	relative viability EC50 (Vero E6 [11])	relative viability EC50 (U2OS [12])	relative viability EC50 (Calu-3 [13])	relative viability EC50 (HepG2 [14])	relative viability EC50 (Caco-2 [15])
O=C(CCc1ccc(O)cc1)c1c(O)cc(O)cc1O[C@@H]1O[C@H](CO)[C@@H](O)[C@H](O)[C@H]1O [phlorizin]	96.4%	97.9%	98.4%	96.7%	97.3%	96.7%	98.5%	93.3%	104%	94.5%	89.7%	95.5%	93.2%	94.3%	95.3%	107%	87.5%	94.9%	96.9%	106%	94.3%	118%	98.3%	97.7%	93.7%	0	0	0	0	0	> 10 µM	> 10 µM	> 10 µM	> 10 µM	> 10 µM
CCS(=O)(=O)N1CCN(c2ccc(Nc3ncc(C(N)=O)c(NC4CC4)n3)cc2)CC1	97.4%	94.8%	99.5%	85.6%	89.6%	95.9%	103%	96.4%	89.8%	27.4%	92.1%	111%	110%	116%	128%	97.6%	94.3%	97.3%	76.3%	79.1%	99.6%	95.4%	91.9%	86.8%	99.1%	0.3	5.7	0	4	0	> 10 µM	2.04 µM	> 10 µM	> 10 µM	> 10 µM
COc1ccsc1CNCC[C@@]1(c2ccccn2)CCOC2(CCCC2)C1 [TRV130]	96.9%	100%	95.7%	94.5%	96.6%	103%	102%	102%	96.9%	100%	103%	96.9%	101%	112%	104%	105%	95.6%	91.9%	102%	94.9%	105%	104%	101%	93%	97.6%	0	0	0	0	0	> 10 µM	> 10 µM	> 10 µM	> 10 µM	> 10 µM
N=C(N)NCc1cccc(I)c1 [iobenguane]	100%	104%	111%	102%	87.7%	97.6%	99.8%	99.1%	95.2%	95.9%	110%	98.9%	107%	111%	98.6%	104%	91.6%	79.8%	79.3%	83%	114%	100%	118%	85.6%	81.4%	0	0	0	6.1	1.7	> 10 µM	> 10 µM	> 10 µM	> 10 µM	> 10 µM
CC(=O)N(C)c1cccc(-c2ccnc3c(C(=O)c4cccs4)cnn23)c1 [indiplon]	105%	102%	97.1%	107%	91.3%	112%	99.4%	101%	96.5%	100%	99.4%	98.2%	91.6%	96.3%	101%	100%	103%	97.3%	96.7%	77.3%	100%	92.6%	93.5%	103%	92.1%	0	0	0	1.3	0	> 10 µM	> 10 µM	> 10 µM	> 10 µM	> 10 µM
CC1(C)[C@@H](OC(=O)CCC(=O)O)CC[C@]2(C)[C@H]3C(=O)C=C4[C@@H]5C[C@@](C)(C(=O)O)CC[C@]5(C)CC[C@@]4(C)[C@]3(C)CC[C@@H]12 [CARBENOXOLONE SODIUM]	100%	49.3%	101%	59.6%	99.2%	107%	99.8%	101%	103%	104%	88.9%	102%	92.8%	106%	96%	97.8%	98%	113%	96.6%	91.2%	94.4%	96.6%	92.3%	99.1%	99%	0	0	0	0	0	> 10 µM	> 10 µM	> 10 µM	> 10 µM	> 10 µM
O=C(OCCOCCO)c1ccccc1Nc1cccc(C(F)(F)F)c1 [etofenamate]	100%	103%	103%	89.3%	81.7%	102%	95.2%	98.7%	100%	96.3%	108%	95.6%	95.8%	82.5%	96.3%	96.2%	105%	92.4%	101%	104%	98.1%	91%	92.4%	90.8%	96.1%	1.5	0	0.1	0	0	> 10 µM	> 10 µM	> 10 µM	> 10 µM	> 10 µM
Cc1cccc(C(C)c2c[nH]cn2)c1C (stereo not given) [medetomidine]	95.3 ± 0.57%	97.5 ± 0.99%	92.5 ± 3.8%	99.75 ± 0.071%	101 ± 3.2%	100 ± 2.2%	96.1 ± 0.71%	102 ± 5.5%	94.5 ± 0.42%	97.6 ± 6.1%	104 ± 2.5%	98.5 ± 14%	103 ± 2.5%	105 ± 11%	95.2 ± 0.57%	92.5 ± 2.5%	106 ± 1.3%	101 ± 2.7%	102 ± 9.6%	111.4 ± 0.14%	97.85 ± 0.35%	88 ± 1.9%	99.2 ± 5.2%	100 ± 3.1%	99.1 ± 1.6%	0	0	0	0	0	> 10 µM	> 10 µM	> 10 µM	> 10 µM	> 10 µM
O=P(O)(O)CN(CCN(CP(=O)(O)O)CP(=O)(O)O)CP(=O)(O)O [EDTMP]	96.1%	99.8%	102%	98.2%	91%	99.8%	95.9%	102%	97.8%	104%	105%	100%	96%	97.1%	99%	88.5%	96.3%	96.5%	92.2%	106%	98.2%	95.5%	95.4%	105%	104%	0	0	0	0	0	> 10 µM	> 10 µM	> 10 µM	> 10 µM	> 10 µM
O=c1ccc2cc(O[C@@H]3O[C@H](CO)[C@@H](O)[C@H](O)[C@H]3O)c(O)cc2o1 [esculin]	105%	98.8%	102%	95.4%	104%	100%	99.4%	96.8%	103%	98.2%	95.4%	101%	91%	96%	107%	104%	97.3%	97.4%	101%	96%	93%	105%	91.7%	102%	99.6%	0	0	0	0	0	> 10 µM	> 10 µM	> 10 µM	> 10 µM	> 10 µM
c1ccc([C@H]2CNCc3ccccc32)cc1 [4-phenyl-1,2,3,4-tetrahydroisoquinoline]	96.7%	99.4%	100%	99.6%	98.8%	99.9%	101%	94.1%	94.9%	100%	101%	109%	92.3%	102%	105%	101%	91.7%	103%	104%	96.7%	98.1%	109%	97.3%	103%	103%	0	0	0	0	0	> 10 µM	> 10 µM	> 10 µM	> 10 µM	> 10 µM
C/C(=N\NC(=O)C(NC(=O)c1ccccc1)c1n[nH]c(=O)c2ccccc12)c1cccc(Br)c1 (stereo not given)	88.3%	97.9%	97.4%	100%	104%	99.5%	97%	100%	102%	100%	95.7%	113%	100%	107%	108%	97.7%	94.2%	98.1%	95.4%	106%	101%	102%	106%	95.8%	100%	0	0	0	0	0	> 10 µM	> 10 µM	> 10 µM	> 10 µM	> 10 µM
CCCNC(C)(C)COC(=O)c1ccccc1 [meprylcaine]	96%	103%	91.8%	95.2%	103%	98.6%	98.2%	103%	97.7%	99.5%	102%	112%	105%	99.9%	94.5%	86.3%	100%	94%	95.6%	91.9%	98.1%	104%	94.3%	106%	96.6%	0	0	0	0	0	> 10 µM	> 10 µM	> 10 µM	> 10 µM	> 10 µM
Nc1ccc(S(=O)(=O)Nc2ccnn2-c2ccccc2)cc1 [sulfaphenazole]	93.1%	102%	88.4%	99.5%	108%	97.4%	97.8%	100%	99.4%	101%	97.2%	100%	101%	104%	97.2%	102%	99.5%	85.5%	112%	103%	97.5%	100%	102%	96.1%	94%	0	0	0	0	0	> 10 µM	> 10 µM	> 10 µM	> 10 µM	> 10 µM
